# Experiments:
# [1] = molecular target: T1, mGluR5 (Rattus norvegicus, UniProt P31424); experiment: mGluR5 binding assay ([3H]-MPEP radioligand competition); conditions: competition with 3 nM [3H]-MPEP, rat brain cortical membranes, 1 h at 4 °C; mean of at least three independent experiments in duplicate
# T1 construct: tissue Charles River Laboratories; host or cells: rat brain cortex membranes (Sprague-Dawley)
# Outline: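 Rat cortical membranes (50 μg) were incubated 1 h at 4 °C with 3 nM [3H]-MPEP and compound (0.003 nM-30 μM, 8 points) in HEPES buffer pH 7.4 with Mg2+, Ca2+ and NaCl. 30 μM MPEP defined non-specific binding, and bound label was counted after filtration. IC50 came from non-linear regression, as the mean of ≥3 experiments run in duplicate.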
# T1 sequence (P31424 21-1203): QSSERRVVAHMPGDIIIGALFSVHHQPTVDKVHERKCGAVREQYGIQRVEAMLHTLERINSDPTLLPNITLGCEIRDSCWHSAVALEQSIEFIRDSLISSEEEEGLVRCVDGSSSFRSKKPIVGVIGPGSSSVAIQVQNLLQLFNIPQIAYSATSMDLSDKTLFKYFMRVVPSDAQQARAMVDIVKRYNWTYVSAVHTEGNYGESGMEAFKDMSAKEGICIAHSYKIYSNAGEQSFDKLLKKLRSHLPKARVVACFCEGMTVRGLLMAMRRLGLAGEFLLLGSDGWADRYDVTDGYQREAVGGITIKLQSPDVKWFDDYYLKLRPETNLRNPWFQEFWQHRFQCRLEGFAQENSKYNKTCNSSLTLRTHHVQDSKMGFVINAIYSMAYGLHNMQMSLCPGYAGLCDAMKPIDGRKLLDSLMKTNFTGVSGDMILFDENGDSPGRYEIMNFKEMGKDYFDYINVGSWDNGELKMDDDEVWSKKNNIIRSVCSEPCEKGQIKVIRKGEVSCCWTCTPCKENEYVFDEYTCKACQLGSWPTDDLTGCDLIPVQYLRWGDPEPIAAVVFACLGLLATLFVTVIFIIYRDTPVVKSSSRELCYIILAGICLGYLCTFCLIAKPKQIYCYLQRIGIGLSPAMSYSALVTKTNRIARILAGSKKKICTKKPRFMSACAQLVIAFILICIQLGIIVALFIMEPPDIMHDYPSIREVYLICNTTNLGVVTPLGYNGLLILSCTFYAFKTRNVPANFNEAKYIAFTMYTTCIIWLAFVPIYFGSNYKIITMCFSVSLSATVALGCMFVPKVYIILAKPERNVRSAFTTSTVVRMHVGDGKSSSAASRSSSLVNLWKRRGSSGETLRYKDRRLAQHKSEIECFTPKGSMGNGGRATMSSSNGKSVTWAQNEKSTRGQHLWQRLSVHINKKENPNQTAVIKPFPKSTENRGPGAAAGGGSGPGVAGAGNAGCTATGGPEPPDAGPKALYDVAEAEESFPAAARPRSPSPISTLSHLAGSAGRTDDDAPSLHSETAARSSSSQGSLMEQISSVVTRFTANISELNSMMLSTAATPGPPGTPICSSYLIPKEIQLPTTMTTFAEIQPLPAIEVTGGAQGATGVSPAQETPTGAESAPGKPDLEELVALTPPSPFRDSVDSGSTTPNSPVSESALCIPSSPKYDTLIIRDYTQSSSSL
Compound,IC50 [1] [µM],melting point
"C(#Cc1ccccn1)CCc1nc2ccccc2o1.Cl [Example 8, 2-(4-(Pyridin-2-yl)but-3-ynyl)benzo[d]oxazole Hydrochloride]",< 0.05,143.5 to 145 °C
"Cc1nc(C#CCCc2ccccc2)c[nH]1 [Example 11, 2-Methyl-4-(4-phenylbut-1-ynyl)-1H-imidazole]",,124 to 126 °C
"CN(C(=O)CCC#Cc1ccccn1)c1ccccc1 [Example 12, N-Methyl-N-phenyl-5-(pyridin-2-yl)pent-4-ynamide]",< 10,68 to 71 °C
"C(#Cc1ccccn1)CCn1nnc(-c2ccccc2)n1 [Example 32, 2-(4-(5-Phenyl-2H-tetrazol-2-yl)but-1-ynyl)pyridine]",< 10,71 to 73 °C
"O=C(CCC#Cc1ccccn1)Nc1ccc(F)cc1 [Example 34, N-(4-Fluorophenyl)-5-(pyridine-2-yl)pent-4-ynamide]",< 1,189.9 to 190.2 °C
"C(#Cc1ccccn1)CCc1nc2ccccc2s1 [Example 35, 2-(4-(Pyridin-2-yl)but-3-ynyl)benzo[d]thiazole]",< 0.05,98.5 to 99.4 °C
"Clc1ccc2nc(CCC#Cc3ccccn3)oc2c1 [Example 36, 6-Chloro-(2-(4-pyridin-2-yl)but-3-ynyl)benzo[d]oxazole]",< 10,101.5 to 102.2 °C
"Fc1ccc2oc(CCC#Cc3ccccn3)nc2c1 [Example 37, 5-Fluoro-(2-(4-pyridin-2-yl)but-3-ynyl)benzo[d]oxazole]",< 10,100.1 to 101 °C
"Fc1ccc(C#CCCC#Cc2ccccn2)cc1 [Example 38, 2-(6-(4-Fluorophenyl)hexa-1,5-diynyl)pyridine]",< 10,68 to 69 °C
"O=c1n(CCC#Cc2ccccn2)nc2ccccn12 [Example 39, 2-(4-(Pyridin-2-yl)but-3-ynyl)-[1,2,4]triazolo[4,3-a]pyridin-3(2H)-one]",,95.5 to 96 °C
"Clc1ccc(-c2noc(CCC#Cc3ccccn3)n2)cc1 [Example 47, 2-(4-(3-(4-Chlorophenyl)-1,2,4-oxadiazol-5-yl)but-1-ynyl)pyridine]",< 10,75 to 77 °C
"C(#Cc1ccccn1)CCc1nc(-c2ccc3ccccc3c2)no1 [Example 51, 2-(4-(3-(Naphthalen-2-yl)-1,2,4-oxadiazol-5-yl)but-1-ynyl)pyridine]",< 10,76 to 78 °C
"Clc1ccc(-c2noc(CCC#Cc3ccccn3)n2)c(Cl)c1 [Example 57, 2-(4-(3-(2,4-Dichlorophenyl)-1,2,4-oxadiazol-5-yl)but-1-ynyl)pyridine]",< 10,77 to 78 °C
"Cc1ccc(F)cc1-c1noc(CCC#Cc2ccccn2)n1 [Example 59, 2-(4-(3-(5-Fluoro-2-methylphenyl)-1,2,4-oxadiazol-5-yl)but-1-ynyl)pyridine]",< 10,90 to 91 °C
"Cc1ccc(Cl)cc1-c1noc(CCC#Cc2ccccn2)n1 [Example 60, 2-(4-(3-(5-Chloro-2-methylphenyl)-1,2,4-oxadiazol-5-yl)but-1-ynyl)pyridine]",< 10,66 to 68 °C
"Fc1cc(F)c2oc(CCC#Cc3ccccn3)nc2c1 [Example 89, 5,7-Difluoro-2-(4-(pyridin-2-yl)but-3-ynyl)benzo[d]oxazole]",< 0.05,93.5 to 94 °C
"Fc1cccc2oc(CCC#Cc3ccccn3)nc12 [Example 90, 4-Fluoro-2-(4-(pyridin-2-yl)but-3-ynyl)benzo[d]oxazole]",< 0.05,89 to 89.5 °C
"N#Cc1cccc2nc(CCC#Cc3ccccn3)oc12 [Example 92, 2-(4-(Pyridin-2-yl)but-3-ynyl)benzo[d]oxazole-7-carbonitrile]",< 0.05,126 to 126.5 °C
"Fc1ccc(Cl)c2oc(CCC#Cc3ccccn3)nc12 [Example 93, 7-Chloro-4-fluoro-2-(4-(pyridin-2-yl)but-3-ynyl)benzo[d]oxazole]",< 0.05,102 to 103 °C
"O=c1n(CCC#Cc2cccc(CF)n2)nc2ccccn12 [Example 120, 2-(4-(6-(Fluoromethyl)pyridin-2-yl)but-3-ynyl)-[1,2,4]triazolo[4,3-a]pyridin-3(2H)-one]",< 10,106 to 107 °C
"FCc1cccc(C#CCCc2ccc3ccccc3n2)n1 [Example 126, 2-(4-(6-(Fluoromethyl)pyridin-2-yl)but-3-ynyl)quinoline]",< 0.05,70.2 to 74.3 °C
"FCc1cccc(C#CCCc2cnc3ccccc3n2)n1 [Example 129, 2-(4-(6-(Fluoromethyl)pyridin-2-yl)but-3-ynyl)quinoxaline]",< 0.05,136 °C (dec.)

Compound,IC50 [1] [µM],melting point
"Cl.FCc1cccc(C#CCCn2nc3cc(F)cc(F)c3n2)n1 [Example 131, 4,6-Difluoro-2-(4-(6-(fluoromethyl)pyridin-2-yl)but-3-ynyl)-2H-benzo[d][1,2,3]triazole hydrochloride]",< 0.05,128 to 130 °C
"Cl.FCc1cccc(C#CCCn2nc3ccc(F)c(F)c3n2)n1 [Example 132, 4,5-Difluoro-2-(4-(6-(fluoromethyl)pyridin-2-yl)but-3-ynyl)-2H-benzo[d][1,2,3]triazole hydrochloride]",< 0.05,157 to 159 °C
"FC(F)c1cccc(C#CCCn2nc3ccccc3n2)n1 [Example 134, 2-(4-(6-(Difluoromethyl)pyridin-2-yl)but-3-ynyl)-2H-benzo[d][1,2,3]triazole]",< 10,101.8 to 102.9 °C
"FCc1cccc(C#CCCc2cnc3cc(F)c(F)cc3n2)n1 [Example 148, 6,7-Difluoro-2-(4-(6-(fluoromethyl)pyridin-2-yl)but-3-ynyl)quinoxaline]",< 10,134.9 to 138.5 °C
"Fc1cc2nn(CCC#Cc3ccccn3)nc2cc1F [Example 153, 5,6-Difluoro-2-(4-(pyridin-2-yl)but-3-ynyl)-2H-benzo[d][1,2,3]triazole]",< 10,131 to 132 °C
"FCc1cccc(C#CCCn2nc3cc(F)c(F)cc3n2)n1 [Example 154, 5,6-Difluoro-2-(4-(6-(fluoromethyl)pyridin-2-yl)but-3-ynyl)-2H-benzo[d][1,2,3]triazole]",< 10,104 to 105 °C
"CNc1cccc(C#CCCn2nc3ccccc3n2)n1 [Example 167, 6-(4-(2H-Benzo[d][1,2,3]triazol-2-yl)but-1-ynyl)-N-methylpyridin-2-amine]",< 0.5,150 to 154 °C
"Fc1ccc(-c2cc(CCC#Cc3ccccn3)on2)cc1 [Example 168, 2-(4-(3-(4-Fluorophenyl)isoxazol-5-yl)but-1-ynyl)pyridine]",< 10,83 to 84 °C
"Cc1noc(C)c1S(=O)(=O)N(C)CCC#Cc1ccccn1 [Example 219, N,3,5-Trimethyl-N-(4-(pyridin-2-yl)but-3-ynyl)isoxazole-4-sulfonamide]",< 10,
"C(#Cc1ccccn1)CCNc1nc2ccccc2s1 [Example 220, N-(4-(Pyridin-2-yl)but-3-ynyl)benzo[d]thiazol-2-amine]",< 10,
"Cn1c(=O)n(CCCC#Cc2ccccn2)c2ccccc21 [Example 221, 1-Methyl-3-(5-(pyridin-2-yl)pent-4-ynyl)-1H-benzo[d]imidazol-2(3H)-one]",< 10,
"FCc1cccc(C#CCCc2cn3cccc(Br)c3n2)n1 [Example 225, 8-Bromo-2-(4-(6-(fluoromethyl)pyridin-2-yl)but-3-ynyl)-imidazo[1,2-a]pyridine]",< 0.05,
"FCc1cccc(C#CCCc2cn3cccc(-c4ccccc4)c3n2)n1 [Example 227, 2-(4-(6-(Fluoromethyl)pyridin-2-yl)but-3-ynyl)-8-phenyl-imidazo[1,2-a]pyridine]",< 10,
"Cc1csc(C#CCCn2nc3ccccc3n2)n1 [Example 229, 2-(4-(4-Methylthiazol-2-yl)but-3-ynyl)-2H-benzo[d][1,2,3]triazole]",,78 to 80 °C
"O=C(OCCC#Cc1ccccn1)c1ccccc1Cl [Example 235, 4-(Pyridin-2-yl)but-3-ynyl 2-chlorobenzoate]",< 0.05,
"O=C(OCCC#Cc1ccccn1)c1cccc(Cl)c1 [Example 236, 4-(Pyridin-2-yl)but-3-ynyl 3-chlorobenzoate]",< 0.05,
"O=c1c2ccccc2cnn1CCCCC#Cc1ccccn1 [Example 243, 2-(6-(Pyridin-2-yl)hex-5-ynyl)phthalazin-1(2H)-one]",< 10,
"O=C(NCCC#Cc1cccc(CF)n1)c1ccccc1Cl [Example 247, 2-Chloro-N-(4-(6-(fluoromethyl)pyridin-2-yl)but-3-ynyl)benzamide]",< 10,
"FCc1cccc(C#CCCn2ncc(-c3ccc(F)cc3)n2)n1 [Example 250, 2-(Fluoromethyl)-6-(4-(4-(4-fluorophenyl)-2H-1,2,3-triazol-2-yl)but-1-ynyl)pyridine]",,84 to 86 °C
"Cc1cc(F)ccc1NC(=O)CCC#Cc1cccc(CF)n1 [Example 252, 5-(6-(Fluoromethyl)pyridin-2-yl)-N-(4-fluoro-2-methyl-phenyl)pent-4-ynamide]",,122 to 125 °C
"FCc1cccc(C#CCCn2cc(-c3ccc(F)cc3)nn2)n1 [Example 254, 2-(Fluoromethyl)-6-(4-(4-(4-fluorophenyl)-1H-1,2,3-triazol-1-yl)but-1-ynyl)pyridine]",,100 to 103 °C
"Cc1c(-c2ccc(F)cc2)nnn1CCC#Cc1ccccn1 [Example 258, 2-(4-(4-(4-Fluorophenyl)-5-methyl-1H-1,2,3-triazol-1-yl)but-1-ynyl)pyridine]",,130 to 131 °C

# — patent US8883826B2, “Alkynyl derivatives as modulators of metabotropic glutamate receptors” (Addex Pharma SA, priority 2004, dated 2014)
